The results in this text go back to ChEMBL document CHEMBL5696442, “Discovery of type II inhibitors of TGFβ-activated kinase 1 (TAK1) and mitogen-activated protein kinase kinase kinase kinase 2 (MAP4K2)” (J Med Chem, 2015).

Molecules are shown by their SMILES. Activity calls are given as the source filed them. The calls are words filed in the database; no cut-off is given here.

The target of assay [1] is Cyclin-dependent kinase 7 (Homo sapiens) (UniProt P50613). The assay can be described thus: Inhibition of CDK7 Lys2 labeling site in human A-375 cells at 0.5 uM by KiNativ Profiling analysis relative to control. The format is cell-based.
Chain of Cyclin-dependent kinase 7 (Homo sapiens) (P50613 whole entry): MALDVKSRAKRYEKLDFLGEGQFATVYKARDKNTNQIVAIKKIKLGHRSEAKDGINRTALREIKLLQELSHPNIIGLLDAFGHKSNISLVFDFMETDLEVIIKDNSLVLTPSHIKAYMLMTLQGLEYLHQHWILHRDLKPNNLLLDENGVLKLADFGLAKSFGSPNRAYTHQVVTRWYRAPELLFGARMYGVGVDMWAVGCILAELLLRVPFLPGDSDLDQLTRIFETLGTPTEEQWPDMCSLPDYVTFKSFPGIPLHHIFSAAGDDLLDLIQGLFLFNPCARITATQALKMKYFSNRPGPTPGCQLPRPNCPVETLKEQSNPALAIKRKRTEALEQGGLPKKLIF
Assay [2] concerns the target Interleukin-1 receptor-associated kinase 3 (Homo sapiens) (UniProt Q9Y616). As to the kind of experiment: Inhibition of IRAK3 (unknown origin) at 1 uM by Ambit Kinomescan binding assay relative to control; values are per cent of control.
Assay [3] relates to Proto-oncogene tyrosine-protein kinase receptor Ret (Homo sapiens), P07949 [V804M]. The assay can be described thus: Inhibition of RET V804M mutant (unknown origin) at 1 uM by Ambit Kinomescan binding assay relative to control; values are per cent of control.
Chain of Proto-oncogene tyrosine-protein kinase receptor Ret (Homo sapiens), P07949 [V804M] (P07949 whole entry V804M): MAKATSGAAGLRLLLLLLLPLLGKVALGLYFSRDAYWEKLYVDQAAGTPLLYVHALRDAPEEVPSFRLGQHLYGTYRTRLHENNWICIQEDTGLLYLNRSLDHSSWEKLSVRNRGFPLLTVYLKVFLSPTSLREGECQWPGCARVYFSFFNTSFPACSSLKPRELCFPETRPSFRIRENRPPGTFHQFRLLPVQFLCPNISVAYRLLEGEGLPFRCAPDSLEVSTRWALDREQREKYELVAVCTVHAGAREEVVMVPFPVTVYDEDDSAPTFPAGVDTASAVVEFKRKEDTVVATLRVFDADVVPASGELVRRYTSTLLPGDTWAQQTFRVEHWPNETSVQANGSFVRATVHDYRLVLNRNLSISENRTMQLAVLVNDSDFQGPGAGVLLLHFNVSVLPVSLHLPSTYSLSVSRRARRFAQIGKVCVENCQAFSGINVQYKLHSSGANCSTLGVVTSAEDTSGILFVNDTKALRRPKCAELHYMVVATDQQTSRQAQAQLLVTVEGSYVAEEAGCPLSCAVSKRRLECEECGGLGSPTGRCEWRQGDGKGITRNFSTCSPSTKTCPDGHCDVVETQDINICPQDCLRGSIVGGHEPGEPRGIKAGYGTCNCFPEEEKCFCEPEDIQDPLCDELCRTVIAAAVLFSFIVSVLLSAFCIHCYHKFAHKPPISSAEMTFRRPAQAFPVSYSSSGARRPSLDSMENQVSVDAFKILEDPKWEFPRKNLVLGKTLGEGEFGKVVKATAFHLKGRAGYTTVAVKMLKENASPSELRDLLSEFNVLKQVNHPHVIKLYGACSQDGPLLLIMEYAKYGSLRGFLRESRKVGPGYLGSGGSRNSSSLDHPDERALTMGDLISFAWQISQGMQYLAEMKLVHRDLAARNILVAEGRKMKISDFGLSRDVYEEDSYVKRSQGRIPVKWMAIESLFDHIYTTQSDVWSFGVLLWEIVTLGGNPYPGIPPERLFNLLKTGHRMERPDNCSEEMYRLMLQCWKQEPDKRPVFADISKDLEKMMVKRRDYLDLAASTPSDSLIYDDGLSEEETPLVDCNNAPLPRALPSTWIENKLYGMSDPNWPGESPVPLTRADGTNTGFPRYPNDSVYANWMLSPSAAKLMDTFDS
In assay [4] the target is T1, Acylglycerol kinase, mitochondrial (Homo sapiens) (UniProt Q53H12).
T1 sequence (whole entry): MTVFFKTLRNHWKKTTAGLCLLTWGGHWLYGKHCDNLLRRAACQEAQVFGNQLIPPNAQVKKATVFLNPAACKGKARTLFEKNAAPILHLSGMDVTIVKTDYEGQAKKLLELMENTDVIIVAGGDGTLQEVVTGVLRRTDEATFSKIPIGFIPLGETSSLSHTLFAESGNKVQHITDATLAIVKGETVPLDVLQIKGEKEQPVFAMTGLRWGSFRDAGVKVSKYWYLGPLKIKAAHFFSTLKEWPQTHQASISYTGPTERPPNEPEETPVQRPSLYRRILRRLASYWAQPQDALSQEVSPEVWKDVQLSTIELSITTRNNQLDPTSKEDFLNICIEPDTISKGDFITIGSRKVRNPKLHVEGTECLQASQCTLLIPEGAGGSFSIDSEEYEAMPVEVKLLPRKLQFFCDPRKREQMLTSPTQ
As to the kind of experiment: Inhibition of AGK ATP labeling site in human A-375 cells at 5 uM by KiNativ Profiling analysis relative to control. The format is cell-based.

Assay [5] deals with Serine/threonine-protein kinase pim-2 (Homo sapiens) (UniProt Q9P1W9). The assay can be described thus: Inhibition of PIM2 (unknown origin) at 10 uM by Ambit Kinomescan binding assay.
Chain of Serine/threonine-protein kinase pim-2 (Homo sapiens) (Q9P1W9 whole entry, looked up): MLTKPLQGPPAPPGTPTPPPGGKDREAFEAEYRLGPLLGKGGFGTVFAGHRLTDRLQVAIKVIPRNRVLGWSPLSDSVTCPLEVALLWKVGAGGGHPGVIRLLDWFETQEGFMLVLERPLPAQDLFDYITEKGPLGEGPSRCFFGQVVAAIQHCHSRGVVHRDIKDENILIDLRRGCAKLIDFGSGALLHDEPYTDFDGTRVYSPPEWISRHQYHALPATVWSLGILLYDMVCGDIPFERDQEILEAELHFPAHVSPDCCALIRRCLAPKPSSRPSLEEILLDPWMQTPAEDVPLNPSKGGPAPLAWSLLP
In assay [6] the target is AP2-associated protein kinase 1 (Homo sapiens) (UniProt Q2M2I8). The assay can be described thus: Inhibition of AAK1 (unknown origin) at 10 uM by Ambit Kinomescan binding assay.
Chain of AP2-associated protein kinase 1 (Homo sapiens) (Q2M2I8 whole entry, looked up): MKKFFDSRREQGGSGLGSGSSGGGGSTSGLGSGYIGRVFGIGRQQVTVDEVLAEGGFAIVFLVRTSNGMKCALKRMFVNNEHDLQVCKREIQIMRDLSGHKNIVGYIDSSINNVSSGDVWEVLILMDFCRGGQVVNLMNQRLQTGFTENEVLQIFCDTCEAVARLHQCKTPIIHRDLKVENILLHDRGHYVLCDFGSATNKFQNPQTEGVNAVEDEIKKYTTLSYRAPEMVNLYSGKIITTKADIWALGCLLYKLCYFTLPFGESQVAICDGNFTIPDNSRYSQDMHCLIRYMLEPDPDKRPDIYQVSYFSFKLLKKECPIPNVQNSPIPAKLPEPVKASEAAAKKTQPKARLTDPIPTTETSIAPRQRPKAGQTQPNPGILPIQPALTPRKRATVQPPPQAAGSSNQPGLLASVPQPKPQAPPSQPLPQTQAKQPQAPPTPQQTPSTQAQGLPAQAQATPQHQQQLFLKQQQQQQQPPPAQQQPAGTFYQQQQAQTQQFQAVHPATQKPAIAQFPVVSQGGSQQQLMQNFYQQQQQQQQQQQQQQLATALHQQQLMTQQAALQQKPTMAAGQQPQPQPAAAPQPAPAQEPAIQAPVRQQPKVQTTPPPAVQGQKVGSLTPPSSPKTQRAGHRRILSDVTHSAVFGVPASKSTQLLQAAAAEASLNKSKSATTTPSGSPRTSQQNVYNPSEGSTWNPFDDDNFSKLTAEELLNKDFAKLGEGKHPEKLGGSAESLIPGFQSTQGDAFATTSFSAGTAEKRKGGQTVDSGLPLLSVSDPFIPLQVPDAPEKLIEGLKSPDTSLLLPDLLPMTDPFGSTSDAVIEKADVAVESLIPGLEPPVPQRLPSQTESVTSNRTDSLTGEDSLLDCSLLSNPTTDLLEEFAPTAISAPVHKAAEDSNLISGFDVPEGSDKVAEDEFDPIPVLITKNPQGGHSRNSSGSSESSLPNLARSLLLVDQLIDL
Assay [7] has as its target Activin receptor type-2A (Homo sapiens) (UniProt P27037). As to the kind of experiment: Inhibition of ACVR2A (unknown origin) at 10 uM by Ambit Kinomescan binding assay.
The target of assay [8] is Mitogen-activated protein kinase 9 (Homo sapiens, UniProt P45984). As to the kind of experiment: Inhibition of JNK2 (unknown origin) at 10 uM by Ambit Kinomescan binding assay relative to control.
Chain of Mitogen-activated protein kinase 9 (P45984 whole entry, looked up): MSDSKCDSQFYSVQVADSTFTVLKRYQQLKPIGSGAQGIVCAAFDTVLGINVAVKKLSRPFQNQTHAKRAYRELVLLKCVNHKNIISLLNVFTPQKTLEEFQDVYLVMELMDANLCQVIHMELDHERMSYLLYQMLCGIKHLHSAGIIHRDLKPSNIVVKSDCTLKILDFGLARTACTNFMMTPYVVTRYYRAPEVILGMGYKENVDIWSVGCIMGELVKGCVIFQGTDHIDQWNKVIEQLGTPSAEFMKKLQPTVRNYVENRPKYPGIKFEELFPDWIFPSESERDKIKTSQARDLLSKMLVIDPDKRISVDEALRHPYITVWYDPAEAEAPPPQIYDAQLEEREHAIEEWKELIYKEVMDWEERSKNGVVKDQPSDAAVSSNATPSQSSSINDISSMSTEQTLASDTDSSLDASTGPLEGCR
Assay [9] deals with Uncharacterized serine/threonine-protein kinase SBK3 (Homo sapiens) (UniProt P0C264). The assay can be described thus: Inhibition of SgK110 (unknown origin) at 10 uM by Ambit Kinomescan binding assay.
Chain of Uncharacterized serine/threonine-protein kinase SBK3 (Homo sapiens) (P0C264 whole entry): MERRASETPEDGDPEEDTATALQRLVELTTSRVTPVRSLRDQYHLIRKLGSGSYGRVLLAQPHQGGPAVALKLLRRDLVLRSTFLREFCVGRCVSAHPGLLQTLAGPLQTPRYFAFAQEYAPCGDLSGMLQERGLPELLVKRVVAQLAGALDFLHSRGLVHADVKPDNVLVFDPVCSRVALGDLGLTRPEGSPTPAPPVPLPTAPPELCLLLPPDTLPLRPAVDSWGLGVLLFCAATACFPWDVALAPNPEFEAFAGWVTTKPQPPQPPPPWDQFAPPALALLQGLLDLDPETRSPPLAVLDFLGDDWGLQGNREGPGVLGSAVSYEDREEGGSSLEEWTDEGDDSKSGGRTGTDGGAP
Assay [10] addresses T2, Phosphatidylinositol 5-phosphate 4-kinase type-2 alpha (Homo sapiens) (UniProt P48426).
T2 sequence (whole entry): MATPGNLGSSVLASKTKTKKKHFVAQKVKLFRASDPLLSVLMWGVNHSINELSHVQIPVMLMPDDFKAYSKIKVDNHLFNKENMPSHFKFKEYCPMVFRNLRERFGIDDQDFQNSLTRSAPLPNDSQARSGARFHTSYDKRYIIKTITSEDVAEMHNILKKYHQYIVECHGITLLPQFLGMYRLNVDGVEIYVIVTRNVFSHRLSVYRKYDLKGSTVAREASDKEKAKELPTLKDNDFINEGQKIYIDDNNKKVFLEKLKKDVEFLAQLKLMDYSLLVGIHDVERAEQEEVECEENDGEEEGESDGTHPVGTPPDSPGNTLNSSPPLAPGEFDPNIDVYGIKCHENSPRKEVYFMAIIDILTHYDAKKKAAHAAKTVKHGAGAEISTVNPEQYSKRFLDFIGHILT
As to the kind of experiment: Inhibition of PIP4K2A ATP labeling site in human A-375 cells at 0.05 uM by KiNativ Profiling analysis relative to control. The format is cell-based.

Assay [11] addresses Calcium/calmodulin-dependent protein kinase type II subunit gamma (Homo sapiens) (UniProt Q13555). The assay can be described thus: Inhibition of CAMK2g K1 labeling site harbouring KTSTQEYAAKIINTK in human Huh-7 cells at 1 uM by KiNativ Profiling analysis relative to control. The class given is cell-based.
Assay [12] can be described thus: Inhibition of p70S6K ATP labeling site in human Huh-7 cell lysate at 1 uM by KiNativ Profiling analysis relative to control. Conditions: condition cancer.
For assay [13], the target named is T3, Serine/threonine-protein kinase Chk1 (Homo sapiens) (UniProt O14757).
T3 sequence (whole entry): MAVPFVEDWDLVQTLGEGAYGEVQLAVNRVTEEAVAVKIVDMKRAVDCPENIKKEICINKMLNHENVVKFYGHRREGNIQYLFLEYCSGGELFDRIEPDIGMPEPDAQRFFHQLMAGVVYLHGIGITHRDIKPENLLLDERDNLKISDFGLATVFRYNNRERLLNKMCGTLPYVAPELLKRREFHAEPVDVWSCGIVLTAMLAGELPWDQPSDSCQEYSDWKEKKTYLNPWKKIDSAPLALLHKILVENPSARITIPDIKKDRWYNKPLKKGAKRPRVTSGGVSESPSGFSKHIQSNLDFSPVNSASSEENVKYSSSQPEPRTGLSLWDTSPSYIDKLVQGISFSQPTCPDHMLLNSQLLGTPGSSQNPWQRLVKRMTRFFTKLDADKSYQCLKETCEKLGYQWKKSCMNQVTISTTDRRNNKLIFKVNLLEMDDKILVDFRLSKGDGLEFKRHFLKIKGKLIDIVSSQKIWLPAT
As to the kind of experiment: Inhibition of CHK1 in human Huh-7 cell lysate at 1 uM by KiNativ Profiling analysis relative to control. The format is subcellular.

Chain of Calcium/calmodulin-dependent protein kinase type II subunit gamma (Homo sapiens) (Q13555 whole entry): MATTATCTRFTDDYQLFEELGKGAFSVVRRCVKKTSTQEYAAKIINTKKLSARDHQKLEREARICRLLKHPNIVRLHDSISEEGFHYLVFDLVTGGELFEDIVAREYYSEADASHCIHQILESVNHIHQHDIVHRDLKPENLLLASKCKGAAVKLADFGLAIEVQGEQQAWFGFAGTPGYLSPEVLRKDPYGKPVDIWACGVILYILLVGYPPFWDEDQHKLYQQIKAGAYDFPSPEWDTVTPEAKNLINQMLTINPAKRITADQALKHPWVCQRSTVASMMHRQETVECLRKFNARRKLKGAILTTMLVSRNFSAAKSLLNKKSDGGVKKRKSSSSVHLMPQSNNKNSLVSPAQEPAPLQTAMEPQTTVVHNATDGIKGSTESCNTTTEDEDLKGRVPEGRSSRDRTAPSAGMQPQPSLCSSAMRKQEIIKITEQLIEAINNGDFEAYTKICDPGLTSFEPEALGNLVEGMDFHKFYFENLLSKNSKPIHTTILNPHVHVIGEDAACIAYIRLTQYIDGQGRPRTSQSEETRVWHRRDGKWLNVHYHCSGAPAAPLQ
Chain of Activin receptor type-2A (Homo sapiens) (P27037 whole entry): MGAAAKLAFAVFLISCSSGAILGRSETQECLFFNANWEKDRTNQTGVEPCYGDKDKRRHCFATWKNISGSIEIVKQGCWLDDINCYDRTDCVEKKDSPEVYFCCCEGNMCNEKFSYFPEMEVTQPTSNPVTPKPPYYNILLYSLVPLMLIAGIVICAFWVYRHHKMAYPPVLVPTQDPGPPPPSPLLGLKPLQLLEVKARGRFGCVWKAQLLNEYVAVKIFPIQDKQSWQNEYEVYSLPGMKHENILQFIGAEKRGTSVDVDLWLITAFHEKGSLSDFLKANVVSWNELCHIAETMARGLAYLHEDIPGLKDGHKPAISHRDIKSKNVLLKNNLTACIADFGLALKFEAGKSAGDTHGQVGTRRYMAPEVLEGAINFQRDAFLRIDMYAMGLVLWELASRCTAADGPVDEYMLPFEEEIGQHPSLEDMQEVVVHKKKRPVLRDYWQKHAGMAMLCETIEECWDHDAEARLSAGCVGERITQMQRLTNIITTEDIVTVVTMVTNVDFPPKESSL

For the compound `CCN1CCN(Cc2ccc(NC(=O)c3ccc(C)c(/C=C/c4cnc5[nH]ccc5c4OC)c3)cc2C(F)(F)F)CC1`, the inhibition in assay [1] came to 36.2%; in assay [4], 9.9%. The same compound registered a residual activity in assay [2] of 76%. Further, in [3], the percent of control is 0.8%.
For the compound `CCN1CCN(Cc2ccc(NC(=O)c3ccc(C)c(Oc4ccnc5[nH]ccc45)c3)cc2C(F)(F)F)CC1`, the inhibition entry in [5], in assay [6], in assay [7] and in [9] was “inactive” each time. Further, the inhibition in assay [8] was determined as 0%; in assay [10], 13.2%; in [11], 1.3%.
Take `CNc1cc(Oc2cc(C(=O)Nc3cc(N4CCN(C)CC4)cc(C(F)(F)F)c3)ccc2C)ncn1`: the inhibition at 1 µM in assay [12] was determined as 2.8%. This compound had an inhibition in assay [13] of 0.5%.

The inhibition is the drop in the measured response relative to a control, in per cent. A word on the residual activity: it is the activity still measured, relative to the control. Low readings indicate a large loss of activity, high ones a small loss of activity.
